According to publication PMC3265452 (PLoS Neglected Tropical Diseases, 2012):
Structures can show the parent of a compound that is named as a salt. Where two headings read alike, the source gives them in different places.

Biological target: AaDOP2 (Aedes aegypti, UniProt H6D5H2)
Assay: AaDOP2 antagonist screen of the LOPAC1280 library (HEK-CRELuc-Aadop2 cells, luminescence)
Assay type: cell-based
[1] = 10 µM compound, 300 nM dopamine, 2 hr, hit = compound effect <20

Chain of AaDOP2 (H6D5H2 1-476): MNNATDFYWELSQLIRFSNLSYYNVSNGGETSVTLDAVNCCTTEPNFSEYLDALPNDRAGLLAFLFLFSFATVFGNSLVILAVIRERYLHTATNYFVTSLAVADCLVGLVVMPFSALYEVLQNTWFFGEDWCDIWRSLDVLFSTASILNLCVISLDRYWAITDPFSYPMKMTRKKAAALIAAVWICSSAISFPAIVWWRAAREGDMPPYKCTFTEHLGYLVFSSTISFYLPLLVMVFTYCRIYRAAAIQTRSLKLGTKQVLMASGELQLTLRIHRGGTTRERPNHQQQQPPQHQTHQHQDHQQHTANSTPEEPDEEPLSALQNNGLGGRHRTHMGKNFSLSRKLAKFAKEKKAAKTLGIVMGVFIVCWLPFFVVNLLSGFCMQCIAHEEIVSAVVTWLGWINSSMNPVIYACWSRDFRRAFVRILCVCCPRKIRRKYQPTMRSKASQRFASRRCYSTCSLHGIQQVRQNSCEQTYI

| SMILES | Compound effect (percent receptor signaling in presence of test compound, relative lux units relative to the SCH23390 control) [1] | Compound effect (percent receptor signaling in presence of test compound, relative lux units relative to the SCH23390 control) |
| --- | --- | --- |
| N=C(N)NC(CCC(=O)O)C(=O)O (stereo not drawn) [Compound 558, alpha-Guanidinoglutaric acid] | 121% |  |
| CC[N+](CC)(CC)CCOc1cccc(OCC[N+](CC)(CC)CC)c1OCC[N+](CC)(CC)CC [Compound 559, Gallamine triethiodide] |  | 120 |
| Cl.Cl.c1ccc(CCCN2CCN(CCOC(c3ccccc3)c3ccccc3)CC2)cc1 [Compound 560, GBR-12935 dihydrochloride] |  | 61 |
| O=C(O)C1=CCNCC1 [Compound 561, Isoguvacine hydrochloride] |  | 71 |
| O=C(O)C1=CCCNC1 [Compound 562, Guvacine hydrochloride] |  | 94 |
| Br.NCc1cc(O)no1 [Compound 564, Muscimol hydrobromide] |  | 130 |
| N=C(N)N/N=C/c1c(Cl)cccc1Cl [Compound 565, Guanabenz acetate] |  | 156 |
| N[C@H](CCC(=O)NCS(=O)(=O)O)C(=O)O [Compound 566, gamma-D-Glutamylaminomethylsulfonic acid] | 109% |  |
| Cc1cnc(C(=O)NCCc2ccc(S(=O)(=O)NC(=O)NC3CCCCC3)cc2)cn1 [Compound 567, Glipizide] |  | 103 |
| CC1=NN=C(c2ccc(N)cc2)c2cc3c(cc2C1)OCO3.Cl [Compound 568, GYKI 52466 hydrochloride] |  | 90 |
| CC1Cc2cc3c(cc2C(c2ccc(N)cc2)=NN1)OCO3 (stereo not drawn) [Compound 569, GYKI 52895] |  | 71 |
| COC(=O)N1CCN(C(=O)Cc2ccc(Cl)c(Cl)c2)C(CN2CCCC2)C1.O=C(O)/C=C/C(=O)O (stereo not drawn) [Compound 570, GR-89696 fumarate] |  | 79 |
| NCC1(CC(=O)O)CCCCC1 [Compound 571, Gabapentin] |  | 112 |
| COc1cc2c(CCNC(C)=O)c[nH]c2cc1O [Compound 574, 6-Hydroxymelatonin] | 101% |  |
| C[N+](C)(C)CCCCCC[N+](C)(C)C [Compound 575, Hexamethonium bromide] |  | 91 |
| COc1cc(CC(=O)O)ccc1O [Compound 576, 4-Hydroxy-3-methoxyphenylacetic acid] |  | 82 |
| NCCS(=O)O [Compound 578, Hypotaurine] |  | 89 |
| NNc1nncc2ccccc12 [Compound 580, Hydralazine hydrochloride] |  | 100 |
| Cl.OCc1c[nH]cn1 [Compound 581, 4-Imidazolemethanol hydrochloride] |  | 114 |
| C[N+](C)(C)CCCCCC[N+](C)(C)C.[Cl-].[Cl-] [Compound 582, Hexamethonium dichloride] |  | 94 |
| C[C@]12CCC(=O)C=C1CC[C@@H]1[C@@H]2[C@@H](O)C[C@@]2(C)[C@H]1CC[C@]2(O)C(=O)COC(=O)CCC(=O)[O-].[Na+] [Compound 583, Hydrocortisone 21-hemisuccinate sodium] | 136% |  |
| COc1ccc(CCN)cc1O.Cl [Compound 586, 4-Methoxy-3-hydroxyphenethylamine hydrochloride] |  | 130 |
| Nc1c2c(nc3ccccc13)CCCC2O.O=C(O)/C=C\C(=O)O (stereo not drawn) [Compound 587, Hydroxytacrine maleate] |  | 86 |
| C[C@]12CCC(=O)C=C1CC[C@@H]1[C@@H]2[C@@H](O)C[C@@]2(C)[C@H]1CC[C@]2(O)C(=O)CO [Compound 588, Hydrocortisone] |  | 78 |
| [Cl-].[Li+] [Compound 589, Lithium Chloride] |  | 86 |
| COC(=O)[C@H](NC(=O)c1cc(-c2ccccc2)nc2ccccc12)c1ccccc1 [Compound 591, SB 218795] |  | 98 |
| O=c1cc(O)cc(/C=C/c2ccc(O)c(O)c2)o1 [Compound 592, Hispidin] |  | 81 |

| SMILES | Compound effect (percent receptor signaling in presence of test compound, relative lux units relative to the SCH23390 control) [1] | Compound effect (percent receptor signaling in presence of test compound, relative lux units relative to the SCH23390 control) |
| --- | --- | --- |
| CCCc1c(-c2ccc(O)cc2)nn(-c2ccc(O)cc2)c1-c1ccc(O)cc1 [Compound 594, 1,3,5-tris(4-hydroxyphenyl)-4-propyl-1H-pyrazole] |  | 73 |
| Oc1ccc(Cn2ccnc2S)cc1 [Compound 595, 1-(4-Hydroxybenzyl)imidazole-2-thiol] |  | 63 |
| Cc1nccc2c1[nH]c1ccccc12 [Compound 597, Harmane] |  | 60 |
| CC(=O)O.NC(=NCCC[C@H](N)C(=O)O)NO [Compound 598, NG-Hydroxy-L-arginine acetate] | 94% |  |
| CC1=C(/C=C/C(C)=C/C=C/C(C)=C/C(=O)Nc2ccc(O)cc2)C(C)(C)CCC1 [Compound 599, Retinoic acid p-hydroxyanilide] | 88% |  |
| CCCCC#Cc1nc(N)c2ncn([C@@H]3O[C@H](C(=O)NCC)[C@@H](O)[C@H]3O)c2n1 [Compound 600, HE-NECA] | 99% |  |
| Cl.N[C@@H](Cc1cnc[nH]1)C(=O)O [Compound 601, L-Histidine hydrochloride] |  | 91 |
| NC(=O)NO [Compound 604, Hydroxyurea] | 122% |  |
| COc1cc(C(O)CO)ccc1OS(=O)(=O)[O-].[K+] (stereo not drawn) [Compound 607, MHPG sulfate potassium] | 131% |  |
| O=C(O)Cc1c[nH]c2ccc(O)cc12 [Compound 608, 5-Hydroxyindolacetic acid] | 85% |  |
| CN1[C@@H]2CC[C@H]1C[C@@H](OC(=O)[C@H](CO)c1ccccc1)C2 [Compound 609, L-Hyoscyamine] |  | 75 |
| Oc1ccc(O)cc1 [Compound 610, Hydroquinone] |  | 89 |
| S=C=Nc1ccc2oc(C3=NCCN3)cc2c1 [Compound 611, BU99006] |  | 104 |
| Cl.Cl.NNCc1cccc(O)c1 [Compound 612, 3-Hydroxybenzylhydrazine dihydrochloride] |  | 104 |
| CCCc1c(OCCCOc2ccc(OCC(=O)O)cc2)ccc(C(C)=O)c1O [Compound 614, L-165,041] |  | 116 |
| N[C@@H](Cc1c[nH]c2ccc(O)cc12)C(=O)O [Compound 615, 5-Hydroxy-L-tryptophan] |  | 126 |
| Cl.NO [Compound 616, Hydroxylamine hydrochloride] | 118% |  |
| NNC(=O)c1ccc(O)cc1 [Compound 617, 4-Hydroxybenzhydrazide] |  | 78 |
| C[N+]1(C)CCOC(O)(c2ccc(-c3ccc(C4(O)C[N+](C)(C)CCO4)cc3)cc2)C1 (stereo not drawn) [Compound 618, Hemicholinium-3] |  | 106 |
| Cl.NC(N)=NCCNS(=O)(=O)c1cccc2cnccc12 [Compound 619, HA-1004 hydrochloride] | 89% |  |
| CC1CNCCN1S(=O)(=O)c1cccc2cnccc12.Cl.Cl (stereo not drawn) [Compound 620, H-7 dihydrochloride] | 38% |  |
| Cl.O[Si](CCCN1CCCCC1)(c1ccc(F)cc1)C1CCCCC1 (stereo not drawn) [Compound 621, Hexahydro-sila-difenidol hydrochloride, p-fluoro analog] | 73% |  |
| CCCCCC(O)CCCC(=O)O.[Na] (stereo not drawn) [Compound 623, 5-hydroxydecanoic acid sodium] | 126% |  |
| Br.CCCN(CCC)[C@@H]1CCc2cccc(O)c2C1 [Compound 624, R-(+)-8-Hydroxy-DPAT hydrobromide] |  | 89 |
| Br.CCCN(CCC)[C@@H]1CCc2ccc(O)cc2C1 [Compound 625, R-(+)-7-Hydroxy-DPAT hydrobromide] | 85% |  |
| COc1[nH]c2ccc(F)cc2c1C(=O)OCC1CCN(CCNS(C)(=O)=O)CC1.NS(=O)(=O)O [Compound 626, GR 125487 sulfamate salt] |  | 87 |
| Br.C[N+](C)(C)CCCCCNCC12CC3CC(CC(C3)C1)C2.[Br-] [Compound 627, IEM-1460] |  | 97 |
